Measured values taken from patent US20230406850A1, “CRYSTALLINE FORM OF HETEROCYCLIC COMPOUND, PREPARATION METHOD THEREFOR AND APPLICATION THEREOF” (WUHAN LL SCIENCE AND TECHNOLOGY DEVELOPMENT CO., LTD., priority 2020, published 2023).

What was measured:
[1] = test system: Dunkin Hartley guinea pigs, citric acid induced cough; assay: Simple citric acid cough model; type: in vivo, guinea pig; conditions: 30 mg/kg
Procedure: Male Dunkin Hartley guinea pigs (300-350 g) were placed in the animal atomization box, the door of the atomization box was closed, and the ultrasonic atomizer (Guangdong Yuehua) was opened at the same time, at the maximum atomization amount (about 2 mL/min) 17.5% citric acid gas was filled with the atomization box, which was continuously atomized for 20 seconds, and the cough performance of the animals was continuously observed within 10 min after the atomization started. During the 10-minute observation period, manual counting of coughs was required, and the number of coughs was judged according to the guinea pig's coughing posture, such as abdominal twitching, mouth opening, head down hooking, etc., as well as the sound of coughing, the number of coughs in the first 5 minutes and the number of coughs in the first 10 minutes were recorded, and the cough incubation period of guinea pigs was also recorded, that is, the time from citric acid induction to the first cough as well as the sound of coughing.

[2] = target: T1, hP2X2/3 (heterodimeric receptors formed by human purinergic P2X receptor subtypes 2 and 3) (Homo sapiens, UniProt P56373+Q9UBL9); assay: FLIPR intracellular calcium assay, hP2X2/3 in HEK293 cells (selectivity); type: cell-based
T1 construct: expressed in transfected cells
T1 sequence (P56373 1-397): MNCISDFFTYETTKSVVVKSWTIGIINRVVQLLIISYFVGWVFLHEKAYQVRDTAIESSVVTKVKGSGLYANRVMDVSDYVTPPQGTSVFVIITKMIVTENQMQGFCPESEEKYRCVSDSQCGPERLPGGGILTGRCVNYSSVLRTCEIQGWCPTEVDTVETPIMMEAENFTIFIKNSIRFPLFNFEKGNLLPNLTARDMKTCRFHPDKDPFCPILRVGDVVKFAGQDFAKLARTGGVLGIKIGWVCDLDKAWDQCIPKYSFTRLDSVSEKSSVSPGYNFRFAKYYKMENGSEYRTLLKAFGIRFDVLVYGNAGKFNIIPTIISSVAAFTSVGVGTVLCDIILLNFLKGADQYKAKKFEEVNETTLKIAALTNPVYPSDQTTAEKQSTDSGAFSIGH
T1 sequence (Q9UBL9 1-471): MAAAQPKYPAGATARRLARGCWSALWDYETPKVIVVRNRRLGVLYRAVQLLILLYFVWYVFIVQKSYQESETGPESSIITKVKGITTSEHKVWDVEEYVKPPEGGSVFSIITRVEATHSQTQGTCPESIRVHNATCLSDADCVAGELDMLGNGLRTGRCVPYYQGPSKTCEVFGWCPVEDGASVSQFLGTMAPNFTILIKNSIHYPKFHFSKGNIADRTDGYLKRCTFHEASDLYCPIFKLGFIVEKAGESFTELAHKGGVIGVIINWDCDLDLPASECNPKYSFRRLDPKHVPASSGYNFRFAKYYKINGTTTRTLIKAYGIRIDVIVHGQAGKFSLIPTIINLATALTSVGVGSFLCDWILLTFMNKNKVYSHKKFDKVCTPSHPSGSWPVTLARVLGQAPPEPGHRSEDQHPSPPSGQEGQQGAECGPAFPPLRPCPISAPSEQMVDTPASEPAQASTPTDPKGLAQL
Procedure: 18-24 hours before the FLIPR experiment, cells were seeded into 96 wells (25000 cells/well) ata density of 250000 cells/mL and incubated overnight in a cell culture incubator. […] 75 μL 1 mM Fluo-4 AM fluorescent dye (Thermo, F14202) was added to each well, and the dye load was incubated for 1.0 hour at 37° C. Then, the 96-well plate was washed once with buffer, and 50 μL of buffer containing test compound or vehicle was added to each well, and it was incubated at room temperature for 30 minutes. […] Then agonist (BZ-ATP (Sigma, B6396) at a final concentration of 5 μM) or vehicle (ultrapure water) was added at 50 μL/well, the fluorescence value was measured at 1-second intervals for 2 minutes, and finally the output fluorescence was counted analysis.

SD rats = assay: Taste disorder test by double bottle method; type: in vivo, rat; conditions: for Quinine/tap water * 100%: single intraperitoneal injection, 15 minutes
Excerpt: SPF male SD rats (6-8 weeks) received 3 days of adaptive drinking water training immediately after storage, and the specific training content was that animals were kept in a single cage, and two bottles of water (both common drinking water) were placed in each cage, and during the adaptive training, water treatment was forbidden all night (the drinking water bottle was removed), and drinking water was given again at 8:30 am to 5:30 pm, and then this cycle lasted for 3 days, and the two bottles of water were changed every day, and during the whole adaptive training period, animals were ate freely. All animal water bottles were removed 20 hours before the formal experiment, and water was banned until the time of the experiment. During the formal experiment, all animals were randomly divided into groups, and the test compound or vehicle was given before the water supply was renewed, and the drug was given by single intraperitoneal injection, and the administration time was determined according to the Tmax of the test compound. Then, the animals were placed in a single cage, and given two bottles of drinking water, one bottle of ordinary drinking water and one bottle of 0.3 mM tonic water, and the water consumption of animals was observed within 15 minutes, and the quinine water consumption/ordinary water consumption was statistically analyzed, with positive compound 2 as the positive control of taste disorder.

[3] = target: T2, hP2X3 (human purinergic P2X receptor subtype 3) (Homo sapiens, UniProt P56373); assay: FLIPR intracellular calcium assay, hP2X3 in HEK293 cells; type: cell-based; conditions: agonist BZ-ATP 2.5 μM, read-out: P2X3 IC50
T2 construct: expressed in transfected cells
T2 sequence (P56373 1-397): T1 sequence (P56373 1-397)
Procedure: 18-24 hours before the FLIPR experiment, cells were seeded into 384 wells (10,000 cells/well) at a density of 400,000 cells/mL and incubated overnight in a cell culture incubator. […] 10 μL of test compound (dissolved at 10 mM in DMSO and serially diluted with buffer) or vehicle was then added to each well and allowed to equilibrate for 30 min at room temperature.

[4] = test system: Dunkin Hartley guinea pigs, ATP-citric acid induced cough; assay: ATP-citric acid cough model; type: in vivo, guinea pig
Procedure: Male Dunkin Hartley guinea pigs (300-400 g) were placed in a whole-body volume scanning box for 3 to 5 minutes, and then subjected to ATP atomization for 2 minutes, with an interval of 3 minutes, followed by citric acid atomization for 5 minutes, and all atomization rates were about 300 μL/min. From citrate acid atomization, cough times and cough latency of animals within 10 min were recorded. During the 10-minute observation period, manual counting of coughs was required, and the number of coughs was judged according to the guinea pig's coughing posture, such as abdominal twitching, mouth opening, head down hooking, etc., as well as the sound of coughing, the number of coughs in the first 10 minutes were recorded, and the cough incubation period of guinea pigs was also recorded.
Animals were divided into vehicle group, dextromethorphan (63 mg/kg) positive group, AF-219 (30 mg/kg) positive group and compound 172 (3, 10, 30 mg/kg) administration group of Embodiment. All compounds were administered orally, except dextromethorphan, which was administered 40 minutes before ATP-citric acid exposure, and the rest compounds were […].

## COC(=O)N1CCO[C@@H](Cc2c(-c3c(F)cc(S(N)(=O)=O)cc3F)nc3cc(Cl)ccn23)C1 [Compound 172, methyl (S)-2-((7-chloro-2-(2,6-difluoro-4-sulfamoylphenyl)imidazo[1,2-a]pyridin-3-yl)methyl)morpholine-4-carboxylate]
[1]
  efficacy in words: comparable to the efficacy of positive compound
[2]; HEK293 cells, agonist BZ-ATP 5 μM
  IC50: > 60000 nM
[2]; P2X2/3 versus P2X3
  Selectivity multiple: >85714
SD rats; 5 mg/kg
  Quinine/tap water * 100%: 7.05%
SD rats; 10 mg/kg
  Quinine/tap water * 100%: 7.41%
SD rats; 20 mg/kg
  Quinine/tap water * 100%: 8.66%
SD rats; 5, 10 and 20 mg/kg
  effect on quinine/water ratio in words: no obvious effect on the quinine/water ratio of rats
[3]
  IC50: 0.7 nM
[4]; 3 mg/kg oral
  Cough suppression rate vs Vehicle: 30.80%
[4]; 10 mg/kg oral
  Cough suppression rate vs Vehicle: 51.20%
[4]; 30 mg/kg oral
  Cough suppression rate vs Vehicle: 52.80%
[4]; guinea pig, in vivo
  effect on number of coughs compared with the vehicle group, in words: significantly reduce the number of coughs
